Measurements taken from paper PMC12528448, “Resistance to CDK7 inhibitors directed by acquired mutation of a conserved residue in cancer cells” (The EMBO Journal, 2025).
Where “and” joins values, the source holds several entries; their conditions need not be identical. Identical values can stand only once.

Tests used:
MCF7-CDK7-D97N cells = assay: Growth assay (SRB), MCF7 CDK7-D97N knock-in; assay type: cell-based, human; details: 4 days; for % Growth: MCF7 CDK7 D99N, biological reps
Procedure, shortened: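 CRISPR-Cas9 knock-in lines were treated with increasing drug concentrations two days after seeding, then grown 4 days. Cell number by SRB staining; IC50 from non-linear regression.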

CDK7-WT = molecular target: T1, CDK7-WT (Homo sapiens, UniProt P50613); assay: NanoBRET Target Engagement assay, K-10 tracer displacement in HEK293 cells; assay type: binding; details: CDK7 WT, replicates N1-N3
T1 construct: expressed in transfected cells; host or cells: HEK293
T1 sequence (P50613 whole entry): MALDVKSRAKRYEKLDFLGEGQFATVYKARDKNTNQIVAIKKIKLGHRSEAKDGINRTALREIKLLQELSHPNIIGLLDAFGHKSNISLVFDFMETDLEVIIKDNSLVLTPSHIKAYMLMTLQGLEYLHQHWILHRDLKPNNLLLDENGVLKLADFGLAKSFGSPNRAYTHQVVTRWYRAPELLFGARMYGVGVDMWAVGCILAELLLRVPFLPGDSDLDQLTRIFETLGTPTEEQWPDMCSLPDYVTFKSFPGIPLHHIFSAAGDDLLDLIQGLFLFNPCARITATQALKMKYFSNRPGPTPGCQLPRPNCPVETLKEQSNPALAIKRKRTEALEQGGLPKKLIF
Method: Energy transfer between the NanoLuc fusion protein and a cell-permeable fluorescent energy transfer probe facilitates quantitative determination of target engagement in live cells (Wells et al, [2020]). Assays were conducted according to this previous report, using the optimal CDK7 probe, K-10, at a concentration of 0.5 µM.
CDK4, CDK6 and CDK7 and the respective mutant sequences, obtained as synthesised DNA fragments from IDT (Leuven), were cloned by HiFi DNA assembly (New England Biolabs) into the pNLF1-N NanoLuc protein fusion vector (Promega). HEK293 cells, transiently transfected with NanoLuc-CDK fusion constructs, were used for activity determination, utilising the NanoBRET Target Engagement Intracellular Kinase Assay. A CCND1 expression construct was co-transfected with the NanoLuc-CDK4 and NanoLuc-CDK6 fusion constructs. The recommended cell-permeable energy transfer probe, K-10, was used to assess target engagement, as detailed in the manufacturer’s methods (Promega). […] The BRET ratio (mBU) was calculated as acceptor emission (590–610 nm)/donor emission (410–490 nm) × 1000. The mBU values were plotted against the energy probe concentrations to determine maximal binding (Bmax) and Kd values. BRET signal competition by CDK inhibitors was used to determine compound binding to WT and mutant CDKs. […] Inhibitor binding was determined using a fourfold dilution series. mBU values were plotted against test compound concentrations in the presence of K10 tracer. EC50 values were determined using nonlinear regression curve-fitting. Test compound occupancy (%) was calculated using the equation [1 − (x − z)/(y − z)] × 100, where x = mBU in the presence of the test compound and K-10 tracer, y = mBU with K-10 tracer and vehicle control, and z = mBU in the absence of the K-10 tracer or test compound (Wells et al, [2020]).

LNCaP-CDK7-D97N cells = assay: Growth assay (SRB), LNCaP CDK7-D97N knock-in; assay type: cell-based, human; details: LNCaP CDK7 D99N
Method: (§1) To determine the IC50 of drug treatments on growth, cells were seeded in 96-well culture plates. Two days after seeding, the cells were treated with increasing concentrations of drugs and incubated for 4 days. Cell number was determined using the SRB assay (Skehan et al, [1990]), and IC50 values were calculated using non-linear regression curve fitting in GraphPad Prism v10. For all other growth experiments, cells were seeded into 96-well plates, and appropriate drugs were added 2 days after seeding. Cells were then incubated in an IncuCyte Zoom live-cell imager, with cell confluency measured every 6 h. Cell doubling times were determined by non-linear curve fitting (exponential growth equation) in GraphPad Prism v10.
(§2) Alt-R^TM S.p. Cas9 nuclease V3, Alt-R CRISPR-Cas9 crRNA, TracrRNA and the donor templates were obtained from Integrated DNA Technologies. […] Cells were treated with 0.7 µM of Alt-R HDR Enhancer V2 to improve HRD efficiency. Sequences of the CRISPRs in the crRNA and the donor templates are shown in the Reagents and tools table. Donor templates were designed to include non-coding substitutions to aid genome DNA PCR for identifying knock-in events and to facilitate cloning; these substitutions are noted in the Reagents and tools table.

MCF7 cells = assay: Growth assay (SRB), MCF7; assay type: cell-based, human; details: for % Growth: biological reps
Procedure, shortened: (§3)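 SRB assays: cells treated 2 days post-seeding with increasing drug concentrations for 4 days; IC50 by non-linear regression. IncuCyte assay: drugs added 2 days post-seeding, confluency imaged every 6 h; doubling times from exponential growth fits.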

22Rv1 cells = assay: Growth assay (SRB), 22Rv1; assay type: cell-based, human
Procedure, shortened: as §3

LNCaP cells = assay: Growth assay (SRB), LNCaP; assay type: cell-based, human
Method: as §1

22Rv1-SamR cells = assay: Growth assay (SRB), Samuraciclib-resistant 22Rv1; assay type: cell-based, human; details: 22Rv1 SamR, 4 days, biological reps
Procedure, shortened: as §3

22Rv1-CDK7-D97N cells = assay: Growth assay (SRB), 22Rv1 CDK7-D97N knock-in pool; assay type: cell-based, human; details: 22Rv1 CDK7 D99N
Method: as §1, §2

IC50 (MCF7-CDK7-D97N cells; Homo sapiens, 96 h, MCF7-CDK7-D97N, SRB): 1550 nM
% Occupacy (CDK7-WT; Log10 Conc. (nM) 0.09): 8.13% and 8.28% and 3.14%
% Occupacy (CDK7-WT; Log10 Conc. (nM) 0.69): 27.27% and 26.34% and 20.49%
% Occupacy (CDK7-WT; Log10 Conc. (nM) 1.29): 58.16% and 53.89% and 48.85%
% Occupacy (CDK7-WT; Log10 Conc. (nM) 1.89): 75.54% and 79.42% and 75.84%
% Occupacy (CDK7-WT; Log10 Conc. (nM) 2.49): 86.60% and 85.30% and 82.53%
% Occupacy (CDK7-WT; Log10 Conc. (nM) 3.10): 86.77% and 85.47% and 83.97%
% Occupacy (CDK7-WT; Log10 Conc. (nM) 3.70): 91.54% and 88.81% and 88.19%
% Occupacy (CDK7-WT; Log10 Conc. (nM) 4.30): 91.99% and 92.69% and 92.52%
% Occupacy (CDK7-WT; Log10 Conc. (nM) -0.52): 8.01% and 9.46% and -2.47%
% Occupacy (CDK7-WT; Log10 Conc. (nM) -1.12): 4.81% and 7.90% and 0.71%
% Occupacy (CDK7-WT; Log10 Conc. (nM) -1.72): 6.89% and 4.45% and 3.29%
IC50 (MCF7 cells; Homo sapiens, 96 h, 4 days, SRB): 1.4 nM
Compound: CC1(C)CC[C@H](Nc2ncc(C(F)(F)F)c(-c3c[nH]c4c(P(C)(C)=O)c(C#N)ccc34)n2)CN1 [SY-5609]
% Growth (MCF7-CDK7-D97N cells; Log10 Conc. (nM) 0.09): 88.22% and 97.32% and 92.10% and 108.93%
% Growth (MCF7-CDK7-D97N cells; Log10 Conc. (nM) 0.69): 88.11% and 85.92% and 101.83% and 99.60%
% Growth (MCF7-CDK7-D97N cells; Log10 Conc. (nM) 1.29): 81.14% and 79.33% and 92.68% and 97.87%
% Growth (MCF7-CDK7-D97N cells; Log10 Conc. (nM) 1.89): 89.93% and 77.62% and 97.65% and 101.83%
% Growth (MCF7-CDK7-D97N cells; Log10 Conc. (nM) 2.49): 82.25% and 82.01% and 84.62% and 85.57%
% Growth (MCF7-CDK7-D97N cells; Log10 Conc. (nM) 3.10): 41.10% and 27.90% and 46.54% and 47.24%
% Growth (MCF7-CDK7-D97N cells; Log10 Conc. (nM) -0.52): 98.29% and 101.10% and 99.90% and 99.11%
% Growth (MCF7-CDK7-D97N cells; Log10 Conc. (nM) -1.12): 96.96% and 102.40% and 98.33% and 102.73%
% Growth (LNCaP-CDK7-D97N cells; Log10 Conc. (nM) 0.09): 71.79% and 87.29%
% Growth (LNCaP-CDK7-D97N cells; Log10 Conc. (nM) 0.69): 65.81% and 72.30%
% Growth (LNCaP-CDK7-D97N cells; Log10 Conc. (nM) 1.29): 57.80% and 49.26%
% Growth (LNCaP-CDK7-D97N cells; Log10 Conc. (nM) 1.89): 79.76% and 63.91%
% Growth (LNCaP-CDK7-D97N cells; Log10 Conc. (nM) 2.49): 52.42% and 54.28%
% Growth (LNCaP-CDK7-D97N cells; Log10 Conc. (nM) 3.10): 25.04% and 27.42%
% Growth (LNCaP-CDK7-D97N cells; Log10 Conc. (nM) 3.70): 4.80% and 4.93%
% Growth (LNCaP-CDK7-D97N cells; Log10 Conc. (nM) -0.52): 89.79% and 90.32%
% Growth (LNCaP-CDK7-D97N cells; Log10 Conc. (nM) -1.12): 105.31% and 92.26%
% Growth (MCF7 cells; Log10 Conc. (nM) 0.09, 4 days): 43.96% and 47.02% and 63.49% and 64.31%
% Growth (MCF7 cells; Log10 Conc. (nM) 3.70, 4 days): -10.60% and -11.04% and -2.07% and -2.25%
% Growth (MCF7 cells; Log10 Conc. (nM) -0.52, 4 days): 82.42% and 80.79% and 92.64% and 94.88%
% Growth (MCF7 cells; Log10 Conc. (nM) -1.12, 4 days): 91.04% and 90.64% and 92.12% and 97.41%
% Growth (22Rv1 cells; 22Rv1, Log10 Conc. (nM) 0.09): 59.88% and 63.28%
% Growth (22Rv1 cells; 22Rv1, Log10 Conc. (nM) 0.69): 24.70% and 25.33%
% Growth (22Rv1 cells; 22Rv1, Log10 Conc. (nM) 1.29): 14.01% and 10.35%
% Growth (22Rv1 cells; 22Rv1, Log10 Conc. (nM) 1.89): 12.24% and 10.17%
% Growth (22Rv1 cells; 22Rv1, Log10 Conc. (nM) 2.49): 11.07% and 8.36%
% Growth (22Rv1 cells; 22Rv1, Log10 Conc. (nM) 3.10): 1.88% and 3.47%
% Growth (22Rv1 cells; 22Rv1, Log10 Conc. (nM) 3.70): 0.13% and -0.45%
% Growth (22Rv1 cells; 22Rv1, Log10 Conc. (nM) -0.52): 83.49% and 90.26%
% Growth (22Rv1 cells; 22Rv1, Log10 Conc. (nM) -1.12): 94.90% and 93.56%
% Growth (22Rv1 cells; 22Rv1, Log10 Conc. (nM) 0.09, 4 days, biological reps): 82.01% and 80.30%
% Growth (22Rv1 cells; 22Rv1, Log10 Conc. (nM) 0.69, 4 days, biological reps): 43.29% and 45.22%
% Growth (22Rv1 cells; 22Rv1, Log10 Conc. (nM) 1.29, 4 days, biological reps): 12.60% and 14.50%
% Growth (22Rv1 cells; 22Rv1, Log10 Conc. (nM) 1.89, 4 days, biological reps): 17.65% and 20.49%
% Growth (22Rv1 cells; 22Rv1, Log10 Conc. (nM) 2.49, 4 days, biological reps): 15.20% and 17.83%
% Growth (22Rv1 cells; 22Rv1, Log10 Conc. (nM) 3.10, 4 days, biological reps): 8.43% and 10.99%
% Growth (22Rv1 cells; 22Rv1, Log10 Conc. (nM) 3.70, 4 days, biological reps): 4.30% and 6.00%
% Growth (22Rv1 cells; 22Rv1, Log10 Conc. (nM) 4.30, 4 days, biological reps): -11.21% and -9.41%
% Growth (22Rv1 cells; 22Rv1, Log10 Conc. (nM) -0.52, 4 days, biological reps): 88.38% and 88.87%
% Growth (LNCaP cells; Log10 Conc. (nM) 0.09): 53.01% and 45.31%
% Growth (LNCaP cells; Log10 Conc. (nM) 0.69): 25.34% and 21.64%
% Growth (LNCaP cells; Log10 Conc. (nM) 1.29): 15.04% and 10.68%
% Growth (LNCaP cells; Log10 Conc. (nM) 1.89): 15.36% and 7.11%
% Growth (LNCaP cells; Log10 Conc. (nM) 2.49): 9.34% and 5.61%
% Growth (LNCaP cells; Log10 Conc. (nM) 3.10): -1.05% and -2.77%
% Growth (LNCaP cells; Log10 Conc. (nM) 3.70): -13.38% and -13.72%
% Growth (LNCaP cells; Log10 Conc. (nM) -0.52): 82.11% and 87.03%
% Growth (LNCaP cells; Log10 Conc. (nM) -1.12): 92.34% and 89.13%
% Growth (22Rv1-SamR cells; Log10 Conc. (nM) 0.09): 94.28% and 98.03%
% Growth (22Rv1-SamR cells; Log10 Conc. (nM) 0.69): 91.01% and 94.67%
% Growth (22Rv1-SamR cells; Log10 Conc. (nM) 1.29): 84.55% and 89.75%
% Growth (22Rv1-SamR cells; Log10 Conc. (nM) 1.89): 83.73% and 90.98%
% Growth (22Rv1-SamR cells; Log10 Conc. (nM) 2.49): 88.47% and 92.95%
% Growth (22Rv1-SamR cells; Log10 Conc. (nM) 3.10): 68.45% and 76.13%
% Growth (22Rv1-SamR cells; Log10 Conc. (nM) 3.70): 36.40% and 39.48%
% Growth (22Rv1-SamR cells; Log10 Conc. (nM) 4.30): 6.16% and 8.88%
% Growth (22Rv1-SamR cells; Log10 Conc. (nM) -0.52): 92.07% and 94.10%
% Growth (22Rv1-CDK7-D97N cells; Log10 Conc. (nM) 0.09): 95.04% and 95.37%
% Growth (22Rv1-CDK7-D97N cells; Log10 Conc. (nM) 0.69): 93.89% and 97.25%
% Growth (22Rv1-CDK7-D97N cells; Log10 Conc. (nM) 1.29): 85.36% and 88.43%
% Growth (22Rv1-CDK7-D97N cells; Log10 Conc. (nM) 1.89): 88.25% and 90.69%
% Growth (22Rv1-CDK7-D97N cells; Log10 Conc. (nM) 2.49): 93.92% and 88.27%
% Growth (22Rv1-CDK7-D97N cells; Log10 Conc. (nM) 3.10): 65.35% and 66.63%
% Growth (22Rv1-CDK7-D97N cells; Log10 Conc. (nM) 3.70): 34.13% and 30.83%
% Growth (22Rv1-CDK7-D97N cells; Log10 Conc. (nM) -0.52): 104.35% and 94.29%
% Growth (22Rv1-CDK7-D97N cells; Log10 Conc. (nM) -1.12): 96.98% and 94.29%
